Measurements: ChEMBL document CHEMBL1201862, “PubChem BioAssay data set” (2004)
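48-hour exposure; five concentrations; linearly interpolated endpoints. Here, GI50 denotes the concentration required for 50% inhibition of growth.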 The source made the active and inactive calls. Cut-off read from the data, not from the text of the source: active = GI50 up to about 1.1 µM and inactive = higher.

Tests used:
Experiment in all cases: inhibition of tumour cell growth, NCI panel, 48 h
[1] = tested on: ACHN
[2] = tested on: CAKI-1
[3] = tested on: CCRF-CEM
[4] = tested on: EKVX
[5] = tested on: HCC 2998
[6] = tested on: HCT-116
[7] = tested on: HL-60
[8] = tested on: HOP-62
[9] = tested on: HOP-92
[10] = tested on: K562
[11] = tested on: LOX IMVI
[12] = tested on: MOLT-4
[13] = tested on: PC-3
[14] = tested on: SF-539
[15] = tested on: SK-MEL-2
[16] = tested on: SK-MEL-5
[17] = tested on: SK-OV-3
[18] = tested on: SN12C
[19] = tested on: SR
[20] = tested on: SW-620

Measured: GI50

COc1ccc2c(c1)/C(=C\c1c(Cl)[nH]c3ccccc13)C(=O)N2
inactive: [1] 5.25 µM | [2] 3.86 µM | [3] 3.21 µM | [4] 3.3 µM | [5] 2.68 µM | [6] 2.57 µM | [7] 3.18 µM | [8] 5.75 µM | [9] 1.84 µM | [10] 3.62 µM | [11] 5.09 µM | [12] 5.33 µM | [13] 4.9 µM | [14] 3.61 µM | [15] 4.21 µM | [16] 3.6 µM | [17] 2.97 µM | [18] 7.8 µM | [19] 2.03 µM | [20] 3.4 µM

NCCN1C(=O)c2ccccc2C1c1ccc(Cl)cc1 (stereo not given)
inactive: [1] > 100 µM | [2] > 100 µM | [3] > 100 µM | [4] > 100 µM | [5] > 100 µM | [6] > 100 µM | [7] > 100 µM | [8] > 100 µM | [9] > 100 µM | [10] > 100 µM | [11] > 100 µM | [12] > 100 µM | [13] 92.3 µM | [14] > 100 µM | [15] > 100 µM | [16] > 100 µM | [17] > 100 µM | [18] > 100 µM | [19] > 100 µM | [20] > 100 µM

CCOC(=O)c1cc(NC(=O)c2ccccc2)c(=O)n2c(cc3c(Cl)cccc32)c1O
inactive: [1] > 100 µM | [2] > 100 µM | [3] 95.5 µM | [4] > 100 µM | [5] > 100 µM | [6] > 100 µM | [7] > 100 µM | [8] > 100 µM | [9] > 100 µM | [10] > 100 µM | [11] > 100 µM | [12] > 100 µM | [13] > 100 µM | [14] > 100 µM | [15] > 100 µM | [16] > 100 µM | [17] > 100 µM | [18] > 100 µM | [19] > 100 µM | [20] > 100 µM

CCC1CCN/C(=N/S(=O)(=O)c2cc(C)c(Cl)cc2S)N1 (stereo not given)
inactive: [1] 34.6 µM | [2] 30 µM | [3] 25.9 µM | [4] 32.5 µM | [5] 43.2 µM | [6] 24.7 µM | [7] 30.8 µM | [8] 24.3 µM | [9] 50.9 µM | [10] 32.4 µM | [11] 24.1 µM | [12] 21.7 µM | [13] 50.2 µM | [14] 29.4 µM | [15] 26.4 µM | [16] > 100 µM | [17] 40.5 µM | [18] 43.3 µM | [19] 35.4 µM | [20] 28.7 µM

C=CCNC(=O)NNC(O)(C(=O)OCC)C(F)(F)F (stereo not given)
inactive: [1] > 100 µM | [2] > 100 µM | [3] > 100 µM | [4] > 100 µM | [5] > 100 µM | [6] > 100 µM | [7] > 100 µM | [8] > 100 µM | [9] > 100 µM | [10] > 100 µM | [11] > 100 µM | [12] > 100 µM | [13] > 100 µM | [14] > 100 µM | [15] > 100 µM | [16] > 100 µM | [17] > 100 µM | [18] > 100 µM | [19] > 100 µM | [20] > 100 µM

CCOC(=O)C(C)(C)C(O)C(C)C (stereo not given)
inactive: [1] > 100 µM | [2] > 100 µM | [3] > 100 µM | [4] > 100 µM | [5] > 100 µM | [6] > 100 µM | [7] > 100 µM | [8] > 100 µM | [9] > 100 µM | [10] > 100 µM | [11] > 100 µM | [12] > 100 µM | [13] > 100 µM | [14] > 100 µM | [15] > 100 µM | [16] > 100 µM | [17] > 100 µM | [18] > 100 µM | [19] > 100 µM | [20] > 100 µM

N=C1N(c2ccccc2)C(=S)/C(=N/c2ccccc2)N1c1ccccc1
inactive: [1] 8.28 µM | [2] 14.4 µM | [3] 4.27 µM | [4] 21.1 µM | [5] 15.3 µM | [6] 2.53 µM | [7] 3.12 µM | [8] 19.3 µM | [9] 9.48 µM | [10] 2.45 µM | [11] 2.01 µM | [12] 1.29 µM | [13] 10.2 µM | [14] 12.4 µM | [15] 5.89 µM | [16] 2.38 µM | [17] 18.9 µM | [18] 13.3 µM | [19] 2.58 µM | [20] 4.27 µM
